Measured values published in ChEMBL document CHEMBL1146769, “The discovery of N-(1,3-thiazol-2-yl)pyridin-2-amines as potent inhibitors of KDR kinase” (Bioorg Med Chem Lett, 2004).
pIC50: −log10 of the molar value.

Columns and labels:
[1] = molecular target: Vascular endothelial growth factor receptor 2 (Homo sapiens, UniProt P35968); test: Inhibitory activity towards vascular endothelial growth factor receptor 2
[2] = molecular target: Fibroblast growth factor receptor 1 (Homo sapiens) (UniProt P11362); test: Selectivity for Fibroblast growth factor receptor 1 over (KDR) kinase insert domain receptor
[3] = molecular target: Fibroblast growth factor receptor 2 (Homo sapiens) (UniProt P21802); test: Selectivity for Fibroblast growth factor receptor 2 over (KDR) kinase insert domain receptor
[4] = molecular target: Proto-oncogene tyrosine-protein kinase Src (Homo sapiens) (UniProt P12931); test: Selectivity for Src protein tyrosine kinase over (KDR) kinase insert domain receptor
[5] = molecular target: Vascular endothelial growth factor receptor 1 (Homo sapiens) (UniProt P17948); test: Selectivity for Vascular endothelial growth factor receptor 1 over (KDR) kinase insert domain receptor
[6] = molecular target: Vascular endothelial growth factor receptor 3 (Homo sapiens) (UniProt P35916); test: Selectivity for Vascular endothelial growth factor receptor 3 over (KDR) kinase insert domain receptor
[7] = molecular target: Platelet-derived growth factor receptor beta (Homo sapiens) (UniProt P09619); test: Selectivity for PDGFRbeta over (KDR) kinase insert domain receptor
Chain of Platelet-derived growth factor receptor beta (Homo sapiens) (P09619 whole entry, the tested form may be a part): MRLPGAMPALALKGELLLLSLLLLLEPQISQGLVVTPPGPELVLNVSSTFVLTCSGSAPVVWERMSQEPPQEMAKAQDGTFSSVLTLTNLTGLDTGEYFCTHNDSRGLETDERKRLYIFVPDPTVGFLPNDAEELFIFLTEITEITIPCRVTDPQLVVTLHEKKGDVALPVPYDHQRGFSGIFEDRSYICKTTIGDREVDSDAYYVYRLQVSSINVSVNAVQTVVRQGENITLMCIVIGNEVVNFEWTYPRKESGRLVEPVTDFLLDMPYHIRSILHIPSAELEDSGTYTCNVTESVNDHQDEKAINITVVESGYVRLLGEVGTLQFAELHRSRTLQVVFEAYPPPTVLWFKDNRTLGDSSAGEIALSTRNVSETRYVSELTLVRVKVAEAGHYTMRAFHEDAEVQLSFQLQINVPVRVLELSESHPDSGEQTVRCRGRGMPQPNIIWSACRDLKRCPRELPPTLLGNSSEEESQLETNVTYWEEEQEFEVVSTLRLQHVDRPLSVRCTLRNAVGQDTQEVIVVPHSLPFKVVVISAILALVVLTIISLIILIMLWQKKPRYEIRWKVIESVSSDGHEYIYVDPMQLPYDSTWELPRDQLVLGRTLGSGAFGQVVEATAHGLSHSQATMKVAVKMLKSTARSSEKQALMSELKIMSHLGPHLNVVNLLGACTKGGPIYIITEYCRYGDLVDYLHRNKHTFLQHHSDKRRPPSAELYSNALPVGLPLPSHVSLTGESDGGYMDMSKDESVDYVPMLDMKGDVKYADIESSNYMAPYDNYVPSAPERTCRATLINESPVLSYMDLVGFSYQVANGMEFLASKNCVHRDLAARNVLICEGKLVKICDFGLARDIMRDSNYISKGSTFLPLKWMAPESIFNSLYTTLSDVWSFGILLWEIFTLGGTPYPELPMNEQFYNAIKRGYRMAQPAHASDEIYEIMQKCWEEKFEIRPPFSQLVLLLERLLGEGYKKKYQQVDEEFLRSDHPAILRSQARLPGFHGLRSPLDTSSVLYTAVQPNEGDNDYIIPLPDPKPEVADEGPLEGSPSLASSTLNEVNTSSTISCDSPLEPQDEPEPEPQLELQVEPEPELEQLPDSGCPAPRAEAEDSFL

Chain of Fibroblast growth factor receptor 2 (Homo sapiens) (P21802 22-821 limits assumed): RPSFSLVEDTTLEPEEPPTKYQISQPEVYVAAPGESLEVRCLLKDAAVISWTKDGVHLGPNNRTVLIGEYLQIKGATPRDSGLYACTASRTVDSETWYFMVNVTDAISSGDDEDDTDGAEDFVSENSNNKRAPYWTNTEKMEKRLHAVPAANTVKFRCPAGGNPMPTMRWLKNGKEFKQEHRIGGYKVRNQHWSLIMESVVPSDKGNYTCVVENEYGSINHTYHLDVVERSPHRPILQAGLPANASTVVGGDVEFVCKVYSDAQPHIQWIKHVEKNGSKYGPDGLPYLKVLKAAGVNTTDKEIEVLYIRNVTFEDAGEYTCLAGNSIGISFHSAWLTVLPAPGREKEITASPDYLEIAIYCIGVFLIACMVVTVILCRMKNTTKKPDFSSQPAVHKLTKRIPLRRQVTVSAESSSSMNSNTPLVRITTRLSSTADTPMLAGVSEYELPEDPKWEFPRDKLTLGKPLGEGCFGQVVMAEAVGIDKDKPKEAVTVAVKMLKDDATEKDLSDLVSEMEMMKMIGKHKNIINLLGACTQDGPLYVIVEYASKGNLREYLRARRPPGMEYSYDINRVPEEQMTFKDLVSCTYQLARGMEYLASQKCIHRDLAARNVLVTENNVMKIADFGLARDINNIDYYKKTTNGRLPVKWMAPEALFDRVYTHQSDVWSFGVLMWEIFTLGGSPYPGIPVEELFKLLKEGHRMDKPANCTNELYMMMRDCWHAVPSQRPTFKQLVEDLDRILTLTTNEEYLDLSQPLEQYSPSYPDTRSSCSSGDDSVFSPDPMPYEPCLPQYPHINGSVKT
Chain of Vascular endothelial growth factor receptor 2 (P35968 whole entry, the tested form may be a part): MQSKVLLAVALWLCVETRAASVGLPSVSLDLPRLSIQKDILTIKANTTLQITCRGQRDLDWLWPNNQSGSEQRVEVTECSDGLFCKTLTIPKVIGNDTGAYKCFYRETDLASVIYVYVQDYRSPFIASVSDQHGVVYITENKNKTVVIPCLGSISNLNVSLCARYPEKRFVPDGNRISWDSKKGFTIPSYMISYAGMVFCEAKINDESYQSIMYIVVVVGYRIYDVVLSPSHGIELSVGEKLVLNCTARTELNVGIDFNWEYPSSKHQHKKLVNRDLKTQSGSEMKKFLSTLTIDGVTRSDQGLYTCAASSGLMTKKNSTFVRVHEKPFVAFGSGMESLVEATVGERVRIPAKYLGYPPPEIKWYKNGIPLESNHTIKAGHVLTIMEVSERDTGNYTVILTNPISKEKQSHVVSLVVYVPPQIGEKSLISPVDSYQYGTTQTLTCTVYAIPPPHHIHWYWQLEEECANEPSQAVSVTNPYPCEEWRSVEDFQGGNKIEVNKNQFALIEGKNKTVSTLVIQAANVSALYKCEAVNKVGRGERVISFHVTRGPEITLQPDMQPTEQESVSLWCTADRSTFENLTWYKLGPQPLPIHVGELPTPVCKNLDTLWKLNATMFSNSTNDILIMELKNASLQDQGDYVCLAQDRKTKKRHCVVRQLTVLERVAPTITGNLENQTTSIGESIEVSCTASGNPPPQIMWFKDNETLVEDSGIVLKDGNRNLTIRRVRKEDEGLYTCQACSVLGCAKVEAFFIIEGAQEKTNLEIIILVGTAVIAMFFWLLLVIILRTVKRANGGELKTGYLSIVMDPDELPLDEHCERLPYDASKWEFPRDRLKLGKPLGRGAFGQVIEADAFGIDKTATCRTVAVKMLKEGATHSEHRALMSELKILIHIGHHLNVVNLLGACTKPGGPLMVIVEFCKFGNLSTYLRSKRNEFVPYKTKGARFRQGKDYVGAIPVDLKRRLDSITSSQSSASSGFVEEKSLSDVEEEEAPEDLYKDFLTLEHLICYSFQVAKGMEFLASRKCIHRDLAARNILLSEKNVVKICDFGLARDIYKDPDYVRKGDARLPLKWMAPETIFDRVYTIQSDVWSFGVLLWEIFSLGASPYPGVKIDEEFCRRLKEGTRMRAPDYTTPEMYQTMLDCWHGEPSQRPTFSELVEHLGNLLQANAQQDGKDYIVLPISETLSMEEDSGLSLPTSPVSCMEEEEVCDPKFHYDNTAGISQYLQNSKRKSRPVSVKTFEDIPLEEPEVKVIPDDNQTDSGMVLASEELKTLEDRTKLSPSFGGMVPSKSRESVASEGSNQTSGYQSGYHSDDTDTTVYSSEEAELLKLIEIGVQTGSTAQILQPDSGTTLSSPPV
Chain of Vascular endothelial growth factor receptor 3 (Homo sapiens) (P35916 whole entry, the tested form may be a part): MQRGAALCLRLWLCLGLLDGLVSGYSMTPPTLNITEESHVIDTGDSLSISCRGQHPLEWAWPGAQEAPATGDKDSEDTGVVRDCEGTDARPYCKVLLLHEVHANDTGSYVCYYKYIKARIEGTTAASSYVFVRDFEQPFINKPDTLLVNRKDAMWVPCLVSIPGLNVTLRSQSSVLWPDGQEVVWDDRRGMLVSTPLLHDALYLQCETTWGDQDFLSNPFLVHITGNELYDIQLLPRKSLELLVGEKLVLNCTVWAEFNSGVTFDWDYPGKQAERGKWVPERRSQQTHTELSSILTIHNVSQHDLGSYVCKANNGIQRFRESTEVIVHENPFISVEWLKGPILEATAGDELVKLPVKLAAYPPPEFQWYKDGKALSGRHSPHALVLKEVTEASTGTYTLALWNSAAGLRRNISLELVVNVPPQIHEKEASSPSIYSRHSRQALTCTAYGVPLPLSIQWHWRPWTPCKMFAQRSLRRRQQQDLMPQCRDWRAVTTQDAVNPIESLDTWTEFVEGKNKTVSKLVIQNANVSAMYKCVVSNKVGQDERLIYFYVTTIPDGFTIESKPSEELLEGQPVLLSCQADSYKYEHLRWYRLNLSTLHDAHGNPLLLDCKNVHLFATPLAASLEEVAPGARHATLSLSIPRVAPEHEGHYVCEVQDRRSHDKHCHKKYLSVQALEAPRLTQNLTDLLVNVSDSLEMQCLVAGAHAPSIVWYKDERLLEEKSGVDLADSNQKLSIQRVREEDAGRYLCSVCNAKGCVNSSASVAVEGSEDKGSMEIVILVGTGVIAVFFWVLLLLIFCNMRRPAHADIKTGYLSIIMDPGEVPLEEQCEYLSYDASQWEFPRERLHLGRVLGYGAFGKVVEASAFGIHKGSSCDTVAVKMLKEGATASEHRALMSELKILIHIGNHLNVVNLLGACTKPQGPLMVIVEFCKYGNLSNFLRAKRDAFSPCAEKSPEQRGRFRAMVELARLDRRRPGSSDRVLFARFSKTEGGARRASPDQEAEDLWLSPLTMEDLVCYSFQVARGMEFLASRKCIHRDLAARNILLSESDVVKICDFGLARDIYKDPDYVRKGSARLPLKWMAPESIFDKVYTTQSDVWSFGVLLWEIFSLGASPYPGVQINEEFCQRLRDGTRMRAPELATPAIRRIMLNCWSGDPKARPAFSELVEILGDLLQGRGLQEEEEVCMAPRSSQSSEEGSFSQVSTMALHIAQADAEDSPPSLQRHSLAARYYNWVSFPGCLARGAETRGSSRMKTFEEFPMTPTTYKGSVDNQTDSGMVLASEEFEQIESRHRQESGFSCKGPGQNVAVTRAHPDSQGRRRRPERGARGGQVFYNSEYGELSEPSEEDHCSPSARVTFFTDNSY

Row | Compound | pIC50 [1] | Selectivity [2] | Selectivity [3] | Selectivity [4] | Selectivity [5] | Selectivity [6] | Selectivity [7]
1 | c1ccc(Nc2ncc(-c3ccccc3)s2)cc1 | 6.91 |  |  |  |  |  | 
2 | CCCCN(C)c1ccc(/N=N/c2ncc([N+](=O)[O-])s2)c(C)c1 |  | > 130 | > 130 | > 130 | > 130 | 1 | 
3 | Cc1cccnc1Nc1ncc(-c2ccccc2)s1 | 7.89 | 820 | 200 | 1200 | 16 | 3 | 1
4 | COc1cccnc1Nc1ncc(-c2ccccc2)s1 | 7.34 |  |  |  |  |  | 
5 | c1ccc(-c2cnc(Nc3ccccn3)o2)cc1 | 5.73 |  |  |  |  |  | 
6 | Brc1cccc(Nc2ncc(-c3ccccc3)s2)n1 | 7.85 | 1620 | 400 | 840 | 12 | 3 | 0.3
7 | Clc1ccc(Nc2ncc(-c3ccccc3)s2)nc1 | 7.46 | > 580 | > 580 | > 580 | 6 | 1 | 0.1
8 | Cc1cnc(Nc2ccccn2)s1 | 5.89 |  |  |  |  |  | 
9 | Cc1ccnc(Nc2ncc(-c3ccccc3)s2)c1 | 8.22 | 220 | 50 | 190 | 7 | 2 | 0.5
10 | Clc1cnc(Nc2ccccn2)s1 | 6.71 |  |  |  |  |  | 
11 | COc1cccc(Nc2ncc(-c3ccccc3)s2)n1 | 8.52 |  |  |  |  |  | 
12 | N#Cc1cnc(Nc2ccccn2)s1 | 7.44 | 214 | 107 | 678 | 30 | 4 | 68
13 | Cc1cccc(Nc2ncc(-c3ccccc3)s2)n1 | 8.00 | 600 | 210 | 760 | 8 | 3 | 0.3
14 | Cc1ccc(Nc2ncc(-c3ccccc3)s2)nc1 | 7.72 | 220 | 70 | 570 | 5 | 1 | 0.3
15 | Brc1cnc(Nc2ccccn2)s1 | 7.15 |  |  |  |  |  | 
16 | COc1ccnc(Nc2ncc(-c3ccccc3)s2)c1 | 7.96 |  |  |  |  |  | 
17 | c1ccc(-c2cnc(Nc3ccncc3)s2)cc1 | 6.59 |  |  |  |  |  | 
18 | O=C(Nc1ncc(-c2ccccc2)s1)c1ccccc1 |  | 72 | 14 | > 240 | 4 | 1 | 
